# Data: US20250154180A1, “CRK-LIKE (CRKL) ADAPTOR PROTEIN INHIBITORS AND METHODS OF MAKING AND USING THE SAME” (Rutgers, The State University of New Jersey, priority 2022, published 2025)
# Key:
# [1] = test system: CrkL phosphorylation by Ab1; test: in vitro kinase assay (CrkL phosphorylation by Ab1, western blot); assay type: biochemical; details: 40 μM candidate drug; compared to Gleevec positive control
# Protocol: The expression of both CrkL and phosphor-CrkL in the negative control was arbitrarily set as “1”, and other treatments were relatively compared with the negative control. The pCrkL and CrkL were set as the phosphorylation ratio, while the kinase inhibition efficiency was set as (1−pCrkL/CrkL)×100%.
# in vitro Kinase Assay—An in vitro kinase assay was conducted to detect CrkL phosphorylation by Ab1 and to determine whether candidate drugs identified in the AlphaScreen assays could inhibit phosphorylation. […] The pTyr207 antibody detected the level of phosphorylated CrkL. […]
# To further verify the pCrkL inhibitor, a kinase assay was designed to evaluate the specificity of positive hits. […] The decreased amount of pCrkL can be detected and quantified by this kinase assay. […]
# In total, ten candidate drugs (five that bind to Ab1 and five that bind to CrkL) were verified by the in vitro kinase inhibition assay followed by thermal shift analysis. […] For phosphorylated CrkL detection, only the phosphorylation of Tyr207 was specifically detected by the anti-CrkL phosphorylation antibodies (FIG. 3B). […]
# PBMCs = test: MTT assay, PBMCs from healthy donors; assay type: cell-based, human
# Protocol: Peripheral blood mononuclear cells (PBMCs, line with the symbol □) were used to determine the specificities of the cytotoxic effects of Pomiferin. The survival curve of PBMC-average is from four different healthy donors. […]
# (§1) MTT assay—The MTT assay was used to detect cell proliferation. Briefly, cells were plated in a 96-well plate at a density of 50,000 cells/well in 200 μl of culture medium with candidate drugs to be tested (DMSO as a negative control). The treated cells were incubated for four hours a 37° C. with a 5% CO2 incubator to allow dark crystals to form at the bottom of the wells. […] After aspirating the culture medium from each well, 100 μl of crystal dissolving solution was added to each well and incubated for 10 minutes at RT. The signal was quantified by measuring the absorbance in each sample at 570 nm using a microplate reader.
# MDA-231-GFP-LUC cells = test: MTT assay, MDA-231-GFP-LUC; assay type: cell-based; details: five M Pomiferin for three days
# Protocol: as §1
# To further test the inhibitory specificity of Pomiferin for specific breast cancer cell lines, The survival percentage was compared between different hematopoietic cancer cell lines and healthy PBMCs.
# BXPC3 tumor = test: PDAC BXPC3 xenograft model; assay type: in vivo, NSG mice
# Protocol: For HCC or PDAC xenograft models, NSG mice 8-week-old) were injected subcutaneously with 1×10^6 HepG2 or BXPC3 tumor cells mixed with Matrigel.
# To further test whether the tumor growth inhibition effect of NC5 applied to other solid tumors, the HCC-Sk-Hep1cell line and PDAC-BXPC3 cell line xenograft models were used. Subcutaneous injection of 1.5×10^6 SK-Hep1 or BXPC3 cells in NSG mice, Six-ten days after tumor cell injection, the palpable tumor in NSG mice was confirmed.
# PBMC cells = test: Annexin V/PI apoptosis, PBMC; assay type: cell-based, human; details: various concentrations, 24 hours
# Protocol: Annexin V/PI Staining—Experimental cells were collected, washed with 1×PBS, resuspended in the binding buffer, and stained with an Annexin V-FITC assay Kit (Millipore Sigma). The cells were incubated with 50 μg/ml Annexin V in 1× binding buffer at room temperature for 15 minutes, then 10 μg/ml propidium iodide for another 15 minutes and analyzed by flow cytometry (EPICS XL). Annexin V-positive/PI-negative cells were considered early apoptotic, cells with both Annexin V and PI-positive to be late apoptotic, and Annexin V negative but PI-positive to be “necrotic.” The percent of apoptosis was calculated as the sum of the percentages of both early and late apoptotic cells.
# To figure out the features of cytotoxic effects of Pomiferin on breast cancer cells. Pomiferin-treated breast cancer cells were stained with an Annexin V/PI kit and measured them with Flow Cytometry.
smiles,measurement,setting,value
"CC(C)=CCc1c2c(c3occ(-c4ccc(O)c(O)c4)c(=O)c3c1O)C=CC(C)(C)O2 [Pomiferin, 3′,4′,5-Trihydroxy-6″,6″-dimethyl-6-(3-methylbut-2-en-1-yl)-6″H-pyrano[2″,3″:7,8]isoflavone]",kinase inhibition effect (CrkL phosphorylation),[1],comparable results similar to the kinase inhibition effect seen with Gleevec
same,cell proliferation (MTT),"PBMCs; 1 uM, 5 uM and 10 uM, 24 hours",no statistical difference
same,IC50,"PBMCs; Homo sapiens, 72 h, MTT, three days, PBMC average of four healthy donors",> 18 µM
same,"sensitivity to Pomiferin (survival percentage, MTT)","PBMCs; five M Pomiferin for three days, compared with MDA-MD-231-LUC",more resistant to Pomiferin inhibition
same,"sensitivity to Pomiferin (survival percentage, MTT)",MDA-231-GFP-LUC cells,most sensitive cell to Pomiferin treatment
same,median survival,"BXPC3 tumor; 5.0 μg/g oral, vehicle 37 days",43.5 days
same,tumor growth,BXPC3 tumor; Pomiferin administered orally,suppressed
same,"median survival, fold longer than vehicle control","BXPC3 tumor; mouse, in vivo",1.2 fold
same,apoptosis,PBMC cells,limited responses
